Experimental data as given in patent US20250288587A1, “Methods of Treating Fibrosis” (Athira Pharma, Inc., priority 2022, published 2025).

How the values were obtained:
CFA-stimulated rats [1] = experiment: CFA inflammatory pain model, cytokine expression in paw skin; format: in vivo; conditions: day 8
Procedure: Response to peripheral inflammatory stimulus can be modeled by administering complete Freund's adjuvant (CFA), a suspension of desiccated mycobacterium in paraffin oil and mannide monooleate, by subcutaneous injection into the rat's footpad. The introduction of CFA to peripheral tissues leads to a rapid, sustained, inflammatory reaction in the treated tissue within 24 hours. Subcutaneous administration of CFA in the plantar region of the paw induces inflammatory pain behaviors that persist for at least 8 days. CFA treatment also leads to the accumulation of inflammatory cytokines in paw tissue at the site of injury, which, if unresolved, can lead to formation of fibrotic tissue. The extent of inflammatory response to CFA can be assessed by quantification of inflammatory cytokines in paw skin lysate, and inflammatory pain behaviors by mechanical allodynia (von Frey test) and thermal hyperalgesia (Hargreaves test).
In another study, Compounds 1a, 5a, and 6a were similarly tested against CFA-induced inflammatory stimulation in the right hind foot for their ability to reduce pain behaviors. This study also included quantification of inflammatory cytokine expression in paw skin lysate. Inflammatory pain stimulation with CFA injection and assessment of mechanical and thermal pain behaviors were performed as described above, with the exception that only post-dose pain behavior testing is reported.
Intraplantar CFA injection occurred at day 0. Treatment with Compounds 1a, 5a, and 6a occurred at days −2, 1, 3, and 7. At day 8, the rats were terminated and cytokine levels were measured in paw skin and plasma. Tissue from paw bone, joint, and muscle were obtained for H&E staining and analysis. Cytokine levels in test compound-treated animals were compared to CFA-stimulated animals. Analytes included interleukin 4 (IL-4), tumor necrosis factor alpha (TNF-α) and interferon gamma (IFN-γ). Statistical analysis consisted of 1-way ANOVA followed by Dunnett's multiple comparisons post-test. Mechanical allodynia and thermal hyperalgesia were tested 1 hour post-dosing on days 1, 3, and 7. PWT refers to […] paw withdrawal threshold where a higher value corresponds to a higher pain threshold. PWL refers to […] paw withdrawal latency where a higher value corresponds to a higher pain threshold.

[2] = test system: pulmonary LPS-stimulated rats; experiment: Cytokine expression in BALF supernatant (multiplex immunoassay), LPS-induced acute pulmonary inflammation; format: in vivo
CFA-stimulated rats [3] = experiment: CFA inflammatory pain model, thermal hyperalgesia (Hargreaves method); format: in vivo; set-up: key to Thermal Hyperalgesia, change in sensitivity compared to CFA alone / Thermal Hyperalgesia, significant reduction in pain behavior vs CFA alone: NS = no statistically significant change in sensitivity compared to CFA alone; + = statistically significant change in sensitivity compared to CFA alone, p < 0.05
[4] = test system: THP-1-differentiated macrophages; experiment: Pro-inflammatory cytokine expression in LPS-challenged THP-1-differentiated macrophages; format: cell-based, human; set-up: key to IL-6, significant reduction in culture supernatant vs LPS treatment / TNF-α, significant reduction in culture supernatant vs LPS treatment / IL-1β, significant reduction in culture supernatant vs LPS treatment: “NS” indicates a non-significant reduction in the indicated cytokine; “+” indicates a p value <0.05 in Tukey post test; “++” indicates a p value <0.01 in Tukey post test; conditions: for IL-1β, significant reduction in culture supernatant vs LPS treatment / IL-6, significant reduction in culture supernatant vs LPS treatment / TNF-α, significant reduction in culture supernatant vs LPS treatment: 20 min pre-treatment, 24 hrs LPS
Procedure, shortened: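 PMA-differentiated THP-1 macrophages pretreated with compound for 20 min, then LPS-challenged for 24 h. Supernatant IL-1β and IL-6 measured by HTRF and TNF-α by ELISA. Reduction versus LPS-only cultures tested by 1-way ANOVA with Tukey post-test at each dose.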

[5] = 0.075 mg/kg IV, 24 h and 0.5 h before LPS
[6] = 0.75 mg/kg IV, 24 h and 0.5 h before LPS
[7] = 7.5 mg/kg IV, 24 h and 0.5 h before LPS

## CCC(C)CN1CC2N(Cc3ccc(C(F)(F)F)cc3)CCC(=O)N2[C@@H](C)C1=O (stereo partly drawn) [Compound 5a]
CFA-stimulated rats [1]; 10 mg/kg PO
  IFN-γ expression in paw skin, change compared to CFA alone: + (+ = statistically significant change in expression compared to CFA alone, p < 0.05)
  IL-4 expression in paw skin, change compared to CFA alone: + (+ = statistically significant change in expression compared to CFA alone, p < 0.05)
  TNF-α expression in paw skin, change compared to CFA alone: + (+ = statistically significant change in expression compared to CFA alone, p < 0.05)
CFA-stimulated rats [1]; 20 mg/kg PO
  IFN-γ expression in paw skin, change compared to CFA alone: + (+ = statistically significant change in expression compared to CFA alone, p < 0.05)
  IL-4 expression in paw skin, change compared to CFA alone: + (+ = statistically significant change in expression compared to CFA alone, p < 0.05)
  TNF-α expression in paw skin, change compared to CFA alone: + (+ = statistically significant change in expression compared to CFA alone, p < 0.05)
[2]; [5]
  CCL3, significant change in cytokine expression in BALF supernatant: + (+ = Significant change in cytokine quantification, p < 0.05 by Student's T-test)
  CX3CL1, significant change in cytokine expression in BALF supernatant: + (+ = Significant change in cytokine quantification, p < 0.05 by Student's T-test)
  EGF, significant change in cytokine expression in BALF supernatant: + (+ = Significant change in cytokine quantification, p < 0.05 by Student's T-test)
  IFN-γ, significant change in cytokine expression in BALF supernatant: + (+ = Significant change in cytokine quantification, p < 0.05 by Student's T-test)
  IL-1α, significant change in cytokine expression in BALF supernatant: + (+ = Significant change in cytokine quantification, p < 0.05 by Student's T-test)
  IL-1β, significant change in cytokine expression in BALF supernatant: + (+ = Significant change in cytokine quantification, p < 0.05 by Student's T-test)
  IL-10, significant change in cytokine expression in BALF supernatant: + (+ = Significant change in cytokine quantification, p < 0.05 by Student's T-test)
  IL-12p70, significant change in cytokine expression in BALF supernatant: + (+ = Significant change in cytokine quantification, p < 0.05 by Student's T-test)
  IL-17A, significant change in cytokine expression in BALF supernatant: + (+ = Significant change in cytokine quantification, p < 0.05 by Student's T-test)
[2]; [6]
  IFN-γ, significant change in cytokine expression in BALF supernatant: + (+ = Significant change in cytokine quantification, p < 0.05 by Student's T-test)
  IL-1α, significant change in cytokine expression in BALF supernatant: + (+ = Significant change in cytokine quantification, p < 0.05 by Student's T-test)
  IL-1β, significant change in cytokine expression in BALF supernatant: + (+ = Significant change in cytokine quantification, p < 0.05 by Student's T-test)
  IL-10, significant change in cytokine expression in BALF supernatant: + (+ = Significant change in cytokine quantification, p < 0.05 by Student's T-test)
  IL-17A, significant change in cytokine expression in BALF supernatant: + (+ = Significant change in cytokine quantification, p < 0.05 by Student's T-test)
[2]; [7]
  IL-1α, significant change in cytokine expression in BALF supernatant: + (+ = Significant change in cytokine quantification, p < 0.05 by Student's T-test)
  IL-10, significant change in cytokine expression in BALF supernatant: + (+ = Significant change in cytokine quantification, p < 0.05 by Student's T-test)
[2]; p<0.05, Student's T-test, any tested dose
  cytokines with significant changes in expression in BALF supernatant versus LPS-only animals: CCL3, CXCL1, IFN-γ, IL-1α, IL-1β, IL-10, IL-12p70, and IL-17A
CFA-stimulated rats [3]; 10 mg/kg PO, Day 1, 1 h post-dose
  Thermal Hyperalgesia, significant reduction in pain behavior vs CFA alone: + (+ = statistically significant change in sensitivity compared to CFA alone, p < 0.05)
CFA-stimulated rats [3]; 10 mg/kg PO, Day 3, 1 h post-dose
  Thermal Hyperalgesia, significant reduction in pain behavior vs CFA alone: NS
CFA-stimulated rats [3]; 10 mg/kg PO, Day 7, 1 h post-dose
  Thermal Hyperalgesia, significant reduction in pain behavior vs CFA alone: + (+ = statistically significant change in sensitivity compared to CFA alone, p < 0.05)
CFA-stimulated rats [3]; 20 mg/kg PO, Day 1, 1 h post-dose
  Thermal Hyperalgesia, significant reduction in pain behavior vs CFA alone: NS
CFA-stimulated rats [3]; 20 mg/kg PO, Day 3, 1 h post-dose
  Thermal Hyperalgesia, significant reduction in pain behavior vs CFA alone: NS
CFA-stimulated rats [3]; 20 mg/kg PO, Day 7, 1 h post-dose
  Thermal Hyperalgesia, significant reduction in pain behavior vs CFA alone: + (+ = statistically significant change in sensitivity compared to CFA alone, p < 0.05)
CFA-stimulated rats [3]; PO, post-dose testing, any tested dose
  study days on which thermal sensitivity was reduced: study days 1 and 7
CFA-stimulated rats [3]; day 7 at each dose, data not shown
  PWL (paw withdrawal latency) vs CFA+vehicle: statistically significant increase
[4]; 0.1 nM
  IL-1β, significant reduction in culture supernatant vs LPS treatment: ++ (“++” indicates a p value <0.01 in Tukey post test)
  IL-6, significant reduction in culture supernatant vs LPS treatment: NS
  TNF-α, significant reduction in culture supernatant vs LPS treatment: NS
[4]; 10 nM
  IL-1β, significant reduction in culture supernatant vs LPS treatment: ++ (“++” indicates a p value <0.01 in Tukey post test)
  IL-6, significant reduction in culture supernatant vs LPS treatment: + (“+” indicates a p value <0.05 in Tukey post test)
  TNF-α, significant reduction in culture supernatant vs LPS treatment: NS
[4]; 1000 nM
  IL-1β, significant reduction in culture supernatant vs LPS treatment: ++ (“++” indicates a p value <0.01 in Tukey post test)
  IL-6, significant reduction in culture supernatant vs LPS treatment: ++ (“++” indicates a p value <0.01 in Tukey post test)
  TNF-α, significant reduction in culture supernatant vs LPS treatment: + (“+” indicates a p value <0.05 in Tukey post test)
[4]; at at least one tested dose
  expression of IL-1β and TNF-α: significantly reduced
  expression of IL-6: significantly reduced
